Laboratory results from US20100040552A1, “METHODS TO EVALUATE GLUCOCORTICOID RECEPTOR AGONISTS AND ANTAGONISTS FOR EFFECTS ON NEURON-LIKE CELLS” (ROSETTA INPHARMATICS LLC, priority 2005, published 2010).
pEC50, pIC50: −log10 of the molar value.

What was measured:
Glucocorticoid Receptor [1] = target: T1, Glucocorticoid Receptor (Homo sapiens, UniProt P04150); test: Classification of effect on the glucocorticoid receptor; assay type: cell-based; set-up: host or cells: COS cells; conditions: as assessed by MDA and A549 transactivation and COS transrepression assays
T1 sequence (P04150 1-777): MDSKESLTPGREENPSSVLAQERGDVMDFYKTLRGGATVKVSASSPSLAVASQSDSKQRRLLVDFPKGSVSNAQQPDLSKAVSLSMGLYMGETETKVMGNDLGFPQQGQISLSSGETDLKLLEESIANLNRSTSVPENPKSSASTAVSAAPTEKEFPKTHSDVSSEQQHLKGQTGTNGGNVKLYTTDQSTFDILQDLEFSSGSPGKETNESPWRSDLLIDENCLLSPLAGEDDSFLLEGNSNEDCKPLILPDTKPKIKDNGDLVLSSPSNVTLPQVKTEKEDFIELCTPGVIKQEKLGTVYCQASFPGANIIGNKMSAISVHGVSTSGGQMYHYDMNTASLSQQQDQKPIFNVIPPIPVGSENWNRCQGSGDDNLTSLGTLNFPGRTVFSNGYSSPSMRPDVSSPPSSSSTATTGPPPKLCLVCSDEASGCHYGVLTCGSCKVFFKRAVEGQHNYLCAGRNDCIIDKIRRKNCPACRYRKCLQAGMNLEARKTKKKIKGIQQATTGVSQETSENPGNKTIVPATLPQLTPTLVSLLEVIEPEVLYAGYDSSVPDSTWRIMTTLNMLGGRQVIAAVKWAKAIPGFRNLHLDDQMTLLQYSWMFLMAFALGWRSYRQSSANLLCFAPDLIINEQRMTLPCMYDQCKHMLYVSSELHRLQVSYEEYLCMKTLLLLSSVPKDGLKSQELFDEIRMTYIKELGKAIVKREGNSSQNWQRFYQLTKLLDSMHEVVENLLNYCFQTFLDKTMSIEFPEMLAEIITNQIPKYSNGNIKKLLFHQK

Glucocorticoid Receptor [2] = target: T1, Glucocorticoid Receptor; test: Transrepression assay, COS cells; assay type: cell-based; set-up: host or cells: COS cells
A549 cells = test: A549 cell molecular profiling experiment; assay type: cell-based; conditions: for Up-regulated genes in category DMSO (<0%) / Up-regulated genes in category Full (≧90%) / Up-regulated genes in category High (66.7-90%) / Up-regulated genes in category Low (0-33.3%) / Up-regulated genes in category Middle (33.3-66.7%): set of 1091 genes; for Down-regulated genes in category DMSO (<0%) / Down-regulated genes in category Full (≧90%) / Down-regulated genes in category High (66.7-90%) / Down-regulated genes in category Low (0-33.3%) / Down-regulated genes in category Middle (33.3-66.7%): set of 1249 genes
Sult1a1 = test: In vivo Sult1a1 expression assay (Example 2); set-up: species or system rat; conditions: co-administered with dexamethasone
Method: Methods: […] […] The rats were sacrificed 6 hours after the final dose and the hippocampus, raphe and caudate nucleus were dissected and placed in […]® (Qiagen, Valencia, Calif.) for 24 hours. The tissue was then placed in a fresh tube and stored at -80 C. Total RNA was prepared using Trizol® (InVitrogen, Carlsbad, Calif.) using the manufacturer's standard protocol. The total RNA was DNase treated and cDNA was made using the methods described in Example 1 in connection with CA77 cell cDNA preparation.

CA77 cells [3] = test: CA77 cell assay, real-time RT-PCR (TaqMan); assay type: cell-based, rat
Method: Assay: CA77 cells were plated into 96 well tissue culture dishes at a density of 8×10^4 cells per well in 200 μl of PM and the cultures maintained in a humidified air atmosphere (7.5% CO2) at 37° C. This media was aspirated after 24 hours and replaced with 200 μl of GM and the cultures incubated as before, for an additional 48 hours, at which time the cultures were at approximately 90% confluency.
For the evaluation of agonist activity, the GM was aspirated, replaced with 200 μl of fresh GM containing concentrations of a drug ranging from 0.1 nM to 10,000 nM in a 10-fold dilution series. Control wells of 0 nM drug in GM and 0.1% DMSO in GM were included in the series for each drug. Each drug concentration and the two controls were evaluated on 4 wells. The cultures were maintained in a humidified air atmosphere (7.5% CO2) at 37° C. for 24 hours.
Control wells of 0 nM drug in GM containing 250 nM corticosterone and 0.1% DMSO in GM (without corticosterone) were included in the series for each drug. Each drug concentration and the two controls were evaluated on 4 wells. The cultures were maintained in a humidified air atmosphere (7.5% CO2) at 37° C. for 24 hours.
Lysis of Cells and Isolation of mRNA: Two methods were employed for the lysis of the cells and the isolation of mRNA at the end of the 24-hour incubation with the drugs.
One method was the mRNA Catcher™ Method (using Kit number 37001, sold by Invitrogen Corporation). The GM was aspirated from the cells, the cell monolayer was washed once with PBS (product number 10010, sold by Invitrogen Corporation), and then the cells were lysed in 30 μl of the kit lysis buffer containing 1% β-ME for 5 minutes at room temperature. The lysates were snap frozen in the 96-well plate by placing the plate on dry ice pellets, and the plate was then stored at −80° C.
The lysates were thawed at room temperature and then transferred into individual wells in the mRNA Catcher™ plate. The plate was covered and incubated for 90 minutes at room temperature for RNA hybridization. […]

Glucocorticoid Receptor [4] = target: T1, Glucocorticoid Receptor; test: Transactivation assay, A549 cells; assay type: cell-based
RGS2 and RGS4 mRNA = conditions: cited from earlier work
Glucocorticoid Receptor [5] = target: T1, Glucocorticoid Receptor; test: Transactivation assay, MDA cells; assay type: cell-based; set-up: host or cells: MDA cells; conditions: maximal response
[6] = test system: RGS2, RGS4 and Sult1a1 gene expression; test: In vivo RT-PCR of rat caudate and raphe nucleus (Example 1)
Excerpt: Cross-hatched bars represent RGS2 gene expression. Unhatched bars represent RGS4 gene expression. ** p=0.003. * p=0.001.
Cross-hatched bars represent Sult1a1 gene expression in the caudate nucleus. Unhatched bars represent Sult1a1 gene expression in the raphe nucleus. *p<0.001.

[7] = target: T2, MR (mineralocorticoid receptor) (Homo sapiens, UniProt P08235); test: MR binding study
T2 sequence (P08235 1-984): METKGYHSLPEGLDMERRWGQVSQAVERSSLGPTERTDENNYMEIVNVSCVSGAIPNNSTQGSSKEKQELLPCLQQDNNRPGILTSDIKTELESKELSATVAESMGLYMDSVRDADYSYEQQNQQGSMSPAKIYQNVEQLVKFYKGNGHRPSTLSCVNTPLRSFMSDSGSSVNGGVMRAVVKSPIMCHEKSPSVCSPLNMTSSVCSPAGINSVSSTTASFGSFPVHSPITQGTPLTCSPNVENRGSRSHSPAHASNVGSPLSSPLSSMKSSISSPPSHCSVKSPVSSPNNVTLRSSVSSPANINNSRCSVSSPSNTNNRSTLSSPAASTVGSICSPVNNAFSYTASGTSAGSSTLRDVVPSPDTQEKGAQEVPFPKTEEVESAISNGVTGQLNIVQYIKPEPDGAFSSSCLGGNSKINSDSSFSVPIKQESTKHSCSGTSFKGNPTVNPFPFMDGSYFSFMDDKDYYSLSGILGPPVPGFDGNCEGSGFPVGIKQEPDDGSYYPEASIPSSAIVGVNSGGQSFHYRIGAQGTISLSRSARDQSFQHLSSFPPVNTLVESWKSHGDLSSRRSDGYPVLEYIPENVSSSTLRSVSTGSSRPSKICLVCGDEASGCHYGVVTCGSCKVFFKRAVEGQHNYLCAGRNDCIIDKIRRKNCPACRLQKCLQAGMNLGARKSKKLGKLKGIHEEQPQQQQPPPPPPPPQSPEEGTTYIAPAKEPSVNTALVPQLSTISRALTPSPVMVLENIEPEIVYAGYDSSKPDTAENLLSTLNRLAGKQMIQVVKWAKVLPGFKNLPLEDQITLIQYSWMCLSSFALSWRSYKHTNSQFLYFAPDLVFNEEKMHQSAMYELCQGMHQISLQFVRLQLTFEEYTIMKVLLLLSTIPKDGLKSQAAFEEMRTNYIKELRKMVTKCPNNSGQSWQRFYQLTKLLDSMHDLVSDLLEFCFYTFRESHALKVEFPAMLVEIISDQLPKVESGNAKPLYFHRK
Excerpt: The following abbreviations are used in Table II: MR, mineralocorticoid receptor; GR, glucocorticoid receptor; and PR, progesterone receptor.

CA77 cells [8] = test: CA77 cell microarray profiling; assay type: cell-based, rat
Method: In order to reduce false positives, progesterone, estradiol, and aldosterone served as out-groups for non-specific effects. Samples were collected at both 6 hours and 24 hours after contacting the CA77 cells with a compound.

## CC#C[C@]1(O)CC[C@H]2[C@@H]3CCC4=CC(=O)CCC4=C3[C@@H](c3ccc(N(C)C)cc3)C[C@@]21C [RU-486, mifepristone]
Glucocorticoid Receptor [1]
  Effect on the glucocorticoid receptor (degree of agonist activity): low partial agonist activity
Glucocorticoid Receptor [2]; COS, read-out: Transrepression, COS % Emax, 1 uM
  Emax at 1 µM: 40%
A549 cells; 1 μm
  Up-regulated genes in category DMSO (<0%): 287
  Up-regulated genes in category Full (≧90%): 38
  Up-regulated genes in category High (66.7-90%): 63
  Up-regulated genes in category Low (0-33.3%): 449
  Up-regulated genes in category Middle (33.3-66.7%): 254
  Down-regulated genes in category DMSO (<0%): 454
  Down-regulated genes in category Full (≧90%): 41
  Down-regulated genes in category High (66.7-90%): 70
  Down-regulated genes in category Low (0-33.3%): 418
  Down-regulated genes in category Middle (33.3-66.7%): 266
Sult1a1
  Effect on dexamethasone-induced Sult1a1 upregulation in the hippocampus: reversal of this effect
CA77 cells [3]; CA77 cells, co-administered with dexamethasone
  Effect on up-regulation of RGS2, Sult1a1, IL6R and SGK by a GR agonist: reversal of this effect
Glucocorticoid Receptor [4]; A549, read-out: Transactivation, A549 Emax
  Emax: 90%

## C[C@]12C[C@H](O)[C@H]3[C@@H](CCC4=CC(=O)CC[C@@]43C)[C@@H]1CC[C@@H]2C(=O)CO [corticosterone]
CA77 cells [3]; Rattus norvegicus, CA77 cell assay
  pEC50: 6.60

## O=C(CCCN1CCC(O)(c2ccc(Cl)cc2)CC1)c1ccc(F)cc1 [haloperidol]
RGS2 and RGS4 mRNA
  RGS2 mRNA: up-regulated
  RGS4 mRNA levels: down-regulation

## C[C@H]1C[C@@H]2[C@H]([C@@H](O)C[C@@]3(C)[C@H]2CC[C@]3(O)C(=O)CO)[C@@]2(C)C=CC(=O)C=C12 [M-Prednisolone, 6α-methylprednisolone]
Glucocorticoid Receptor [2]; 0.3 μM
  Transrepression, COS % Emax, 0.3 μM: 100%
Glucocorticoid Receptor [2]; 1 uM
  Transrepression, COS % Emax, 1 uM: 100%
Glucocorticoid Receptor [5]
  Transactivation, MDA Emax: 104%
[6]; down-regulated
  RGS4 expression in caudate nucleus: about 50 % of control levels
[6]; upregulated vs vehicle
  RGS2 expression in caudate nucleus: 2 fold
Glucocorticoid Receptor [4]; maximal response
  Transactivation, A549 Emax: 124%

## C[C@]12C=CC(=O)C=C1CC[C@@H]1[C@@H]2[C@@H](O)C[C@@]2(C)[C@H]1CC[C@]2(O)C(=O)CO [Prednisolone, prednisolone]
Glucocorticoid Receptor [1]
  Effect on the glucocorticoid receptor (degree of agonist activity): full agonist activity
A549 cells; 100 nM
  Up-regulated genes in category DMSO (<0%): 0
  Up-regulated genes in category Full (≧90%): 940
  Up-regulated genes in category High (66.7-90%): 150
  Up-regulated genes in category Low (0-33.3%): 0
  Up-regulated genes in category Middle (33.3-66.7%): 1
  Down-regulated genes in category DMSO (<0%): 0
  Down-regulated genes in category Full (≧90%): 1140
  Down-regulated genes in category High (66.7-90%): 109
  Down-regulated genes in category Low (0-33.3%): 0
  Down-regulated genes in category Middle (33.3-66.7%): 0
[7]
  pIC50: 9.01

## C[C@]12CCC(=O)C=C1CC[C@@H]1[C@@H]2[C@@H](O)C[C@]2(C=O)[C@@H](C(=O)CO)CC[C@@H]12 [aldosterone]
CA77 cells [8]; 6 hours
  Activity in the GR agonist signature at 6 hours: little or no activity
CA77 cells [8]; response at 24 hours
  Presence of the GR agonist signature: weakly present
